What was measured:
lambsquarters = test: Test C postemergence lambsquarters; format: in vivo, Chenopodium album; conditions: 0 to 100 scale, 0 no effect, 100 complete control
Description: (§1) Compounds evaluated in this test were formulated in a non-phytotoxic solvent mixture which included a surfactant and applied to plants that were grown for various periods of time before treatment (postemergence application). A mixture of sandy loam soil and greenhouse potting mix in a 60:40 ratio was used for the postemergence test.
Plantings of these crops and weed species were adjusted to produce plants of appropriate size for the postemergence test. All plant species were grown using normal greenhouse practices. Crop and weed species include arrowleaf sida (Sida rhombifolia), barnyardgrass (Echinochloa crus-galli), cocklebur (Xanthium strumarium), common ragweed (Ambrosia elatior), corn (Zea mays), cotton (Gossypium hirsutum), eastern black nightshade (Solanum ptycanthum), fall panicum (Panicum dichotomiflorum), field bindweed (Convolvulus arvensis), giant foxtail (Setaria faberii), hairy beggarticks (Bidens pilosa), ivyleaf morningglory (Ipomoea hederacea), johnsongrass (Sorghum halepense), ladysthumb smartweed (Polygonum persicaria), lambsquarters (Chenopodium album), large crabgrass (Digitaria sanguinalis), purple nutsedge (Cyperus rotundus), redroot pigweed (Amaranthus retroflexus), soybean (Glycine max), surinam grass (Brachiaria decumbens), velvetleaf (Abutilon theophrasti) and wild poinsettia (Euphorbia heterophylla).
Treated plants and untreated controls were maintained in a greenhouse for approximately 14, to 21 days, after which all treated plants were compared to untreated controls and visually evaluated. Plant response ratings, summarized in Table C, were based upon a 0 to 100 scale where 0 was no effect and 100 was complete control. A dash response (−) means no test result.

common ragweed = test: Test C postemergence common ragweed; format: in vivo, Ambrosia elatior; conditions: 0 to 100 scale, 0 no effect, 100 complete control
Method in brief: (§2)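 Visual ratings on a 0 to 100 scale, where 0 means no effect and 100 complete control, were made versus untreated controls roughly 14 to 21 days after postemergence treatment. Test compounds were formulated in a non-phytotoxic solvent mixture containing a surfactant.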

soybean = test: Test C postemergence soybean; format: in vivo, Glycine max; conditions: 0 to 100 scale, 0 no effect, 100 complete control
Method in brief: as §2

littleseed canarygrass [1] = test: Test E littleseed canarygrass; format: in vivo, Phalaris minor; conditions: Postemergence
Method in brief: (§3)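 Greenhouse test: compounds in non-phytotoxic solvent with surfactant; for postemergence, sprayed on plants at 1- to 4-leaf stage grown in 60:40 sandy loam/potting mix. Injury rated visually against untreated controls after about 21 to 28 days.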

spring wheat [2] = test: Test E spring wheat; format: in vivo, Triticum aestivum; conditions: Postemergence
Description: as §1, with “in the 1- to 4-leaf stage” for “grown for various periods of time before treatment”
(§4) Plantings of these crops and weed species were adjusted to produce plants of appropriate size for the postemergence test. All plant species were grown using normal greenhouse practices. Crop and weed species include annual bluegrass (Poa annua), blackgrass (Alopecurus myosuroides), black nightshade (Solanum nigra), chickweed (Stellaria media), common poppy (Papaver rhoeas), deadnettle (Lamium amplexicaule), downy brome (Bromus tectorum), field violet (Viola arvensis), galium (Galium aparine), green foxtail (Setaria viridis), Italian ryegrass (Lolium multiflorum), jointed goatgrass (Aegilops cylindrica), kochia (Kochia scoparia), lambsquarters (Chenopodium album), littleseed canarygrass (Phalaris minor), rape (Brassica napus), redroot pigweed (Amaranthus retroflexus), Russian thistle (Salsola kali), scentless chamomile (Matricaria inodora), spring barley (Hordeum vulgare), sugar beet (Beta vulgaris), sunflower (Helianthus annuus), ivyleaf speedwell (Veronica hederaefolia), spring wheat (Triticum aestivum), winter wheat (Triticum aestivum), wild buckwheat (Polygonum convolvulus), wild mustard (Sinapis arvensis), wild oat (Avena fatua), windgrass (Apera spica-venti) and winter barley (Hordeum vulgare).
(§5) Treated plants and untreated controls were maintained in a greenhouse for approximately 21 to 28 days, after which all treated plants were compared to untreated controls and visually evaluated. […] A dash response (-) means no test result.

common poppy = test: Test E common poppy; format: in vivo, Papaver rhoeas; conditions: Postemergence; for Plant response rating, Comnion poppy: Rate 125 g/ha
Method in brief: as §3

jointed goatgrass = test: Test E jointed goatgrass; format: in vivo, Aegilops cylindrica; conditions: Postemergence
Description: as §1, with “in the 1- to 4-leaf stage” for “grown for various periods of time before treatment”
as §4, §5

field violet = test: Test E field violet; format: in vivo, Viola arvensis; conditions: Preemergence
galium = test: Test E galium; format: in vivo, Galium aparine; conditions: Postemergence
Description: […] A mixture of sandy loam soil and greenhouse potting mix in a 60:40 ratio was used for the postemergence test.
as §4, §5

spring barley [3] = test: Test E spring barley; format: in vivo, Hordeum vulgare; conditions: Preemergence
littleseed canarygrass [4] = test: Test E littleseed canarygrass; format: in vivo, Phalaris minor; conditions: Preemergence
kochia = test: Test E kochia; format: in vivo, Kochia scoparia; conditions: Preemergence
winter barley = test: Test E winter barley; format: in vivo, Hordeum vulgare; conditions: Postemergence
Method in brief: as §3

deadnettle = test: Test E deadnettle; format: in vivo, Lamium amplexicaule; conditions: Preemergence
spring wheat [5] = test: Test E spring wheat; format: in vivo, Triticum aestivum; conditions: Preemergence
spring barley [6] = test: Test E spring barley; format: in vivo, Hordeum vulgare; conditions: Postemergence
Method in brief: as §3

[7] = Rate 250 g/ha, 0 to 100 scale (0 no effect, 100 complete control)
[8] = Rate 62 g/ha, 0 to 100 scale, 0 no effect, 100 complete control
[9] = Rate 125 g/ha, 0 to 100 scale (0 no effect, 100 complete control)

CC(C)N(C(=O)n1oc(=O)n(Cc2cccs2)c1=O)c1ccc(F)cc1 [Compound 80]
15: Plant response rating, Lambsquarters (lambsquarters; Rate 280 g/ha)
20: Plant response rating, Lambsquarters (lambsquarters; Rate 560 g/ha) | Plant response rating, Lambsquarters (lambsquarters; Rate 1120 g/ha) | Plant response rating, Soybean (soybean; Rate 280 g/ha)
60: Plant response rating, Soybean (soybean; Rate 560 g/ha)
5: Plant response rating Common ragweed (common ragweed; Rate 560 g/ha) | Plant response rating Common ragweed (common ragweed; Rate 1120 g/ha) | Plant response rating, Soybean (soybean; Rate 140 g/ha)
0: Plant response rating, Lambsquarters (lambsquarters; Rate 140 g/ha) | Plant response rating Common ragweed (common ragweed; Rate 140 g/ha) | Plant response rating Common ragweed (common ragweed; Rate 280 g/ha)

C=CCn1c(=O)on(C(=O)N(c2ccccc2)C(C)C)c1=O [Compound 93]
85: Plant response rating, Deadnettle (deadnettle; Rate 250 g/ha, 0 to 100 scale) | Plant response rating, Soybean (soybean; Rate 1120 g/ha)
20: Plant response rating Common ragweed (common ragweed; Rate 1120 g/ha) | Plant response rating, Kochia (kochia; Rate 250 g/ha, 0 to 100 scale)
0: Plant response rating, LS canarygrass (littleseed canarygrass [1]; Rate 62 g/ha, 0 to 100 scale) | Plant response rating, LS canarygrass (littleseed canarygrass [1]; Rate 125 g/ha, 0 to 100 scale) | Plant response rating, LS canarygrass (littleseed canarygrass [1]; [7]) | Plant response rating, Spring Wheat (spring wheat [2]; Rate 62 g/ha, 0 to 100 scale) | Plant response rating, Spring Wheat (spring wheat [2]; Rate 125 g/ha, 0 to 100 scale) | Plant response rating, Spring Wheat (spring wheat [2]; [7]) | Plant response rating, Common poppy (common poppy; Rate 62 g/ha, 0 to 100 scale) | Plant response rating, Comnion poppy (common poppy; 0 to 100 scale) | Plant response rating, Common poppy (common poppy; [7]) | Plant response rating, Jointed goatgra (jointed goatgrass; Rate 62 g/ha, 0 to 100 scale) | Plant response rating, Jointed goatgra (jointed goatgrass; Rate 125 g/ha, 0 to 100 scale) | Plant response rating, Jointed goatgra (jointed goatgrass; [7]) | Plant response rating, Field violet (field violet; [8]) | Plant response rating, Galium (galium; Rate 62 g/ha, 0 to 100 scale) | Plant response rating, Galium (galium; Rate 125 g/ha, 0 to 100 scale) | Plant response rating, Galium (galium; [7]) | Plant response rating, Kochia (kochia; [8]) | Plant response rating, Kochia (kochia; [9]) | Plant response rating, Barley (winter) (winter barley; Rate 62 g/ha, 0 to 100 scale) | Plant response rating, Barley (winter) (winter barley; Rate 125 g/ha, 0 to 100 scale) | Plant response rating, Barley (winter) (winter barley; [7]) | Plant response rating, Spring Barley (spring barley [6]; Rate 62 g/ha, 0 to 100 scale) | Plant response rating, Spring Barley (spring barley [6]; Rate 125 g/ha, 0 to 100 scale) | Plant response rating, Spring Barley (spring barley [6]; [7])
10: Plant response rating, Lambsquarters (lambsquarters; Rate 140 g/ha) | Plant response rating, Lambsquarters (lambsquarters; Rate 280 g/ha) | Plant response rating, Lambsquarters (lambsquarters; Rate 560 g/ha) | Plant response rating, Field violet (field violet; [9]) | Plant response rating Common ragweed (common ragweed; Rate 280 g/ha) | Plant response rating Common ragweed (common ragweed; Rate 560 g/ha) | Plant response rating, Spring Barley (spring barley [3]; [9]) | Plant response rating, Deadnettle (deadnettle; [8]) | Plant response rating, Deadnettle (deadnettle; [9])
80: Plant response rating, LS canarygrass (littleseed canarygrass [4]; [9]) | Plant response rating, Spring Wheat (spring wheat [5]; Rate 250 g/ha, 0 to 100 scale) | Plant response rating, Soybean (soybean; Rate 560 g/ha)
50: Plant response rating, Spring Wheat (spring wheat [5]; [9])
30: Plant response rating, Field violet (field violet; Rate 250 g/ha, 0 to 100 scale) | Plant response rating, Spring Wheat (spring wheat [5]; [8])
40: Plant response rating, Lambsquarters (lambsquarters; Rate 1120 g/ha) | Plant response rating, LS canarygrass (littleseed canarygrass [4]; [8]) | Plant response rating, Soybean (soybean; Rate 140 g/ha)
5: Plant response rating Common ragweed (common ragweed; Rate 140 g/ha) | Plant response rating, Spring Barley (spring barley [3]; [8])
60: Plant response rating, Spring Barley (spring barley [3]; Rate 250 g/ha, 0 to 100 scale) | Plant response rating, LS canarygrass (littleseed canarygrass [4]; Rate 250 g/ha, 0 to 100 scale) | Plant response rating, Soybean (soybean; Rate 280 g/ha)

CC(C)N(C(=O)n1oc(=O)n(Cc2cccs2)c1=O)c1ccccc1 [Compound 103]
0: Plant response rating, Lambsquarters (lambsquarters; Rate 140 g/ha) | Plant response rating Common ragweed (common ragweed; Rate 140 g/ha) | Plant response rating Common ragweed (common ragweed; Rate 280 g/ha) | Plant response rating Common ragweed (common ragweed; Rate 560 g/ha)
20: Plant response rating, Lambsquarters (lambsquarters; Rate 1120 g/ha)
30: Plant response rating, Soybean (soybean; Rate 140 g/ha) | Plant response rating, Soybean (soybean; Rate 280 g/ha)
5: Plant response rating, Lambsquarters (lambsquarters; Rate 280 g/ha) | Plant response rating, Lambsquarters (lambsquarters; Rate 560 g/ha) | Plant response rating Common ragweed (common ragweed; Rate 1120 g/ha)
35: Plant response rating, Soybean (soybean; Rate 560 g/ha) | Plant response rating, Soybean (soybean; Rate 1120 g/ha)

CCn1c(=O)on(C(=O)N(c2ccc(Cl)cc2)C(C)C)c1=O [Compound 108]
50: Plant response rating, Galium (galium; [7]) | Plant response rating, LS canarygrass (littleseed canarygrass [4]; [9]) | Plant response rating, Kochia (kochia; [8]) | Plant response rating, Kochia (kochia; [9])
5: Plant response rating, Spring Barley (spring barley [3]; Rate 250 g/ha, 0 to 100 scale)
60: Plant response rating, LS canarygrass (littleseed canarygrass [4]; [8])
10: Plant response rating, Spring Wheat (spring wheat [2]; Rate 62 g/ha, 0 to 100 scale) | Plant response rating, Spring Wheat (spring wheat [2]; Rate 125 g/ha, 0 to 100 scale) | Plant response rating, Common poppy (common poppy; Rate 62 g/ha, 0 to 100 scale) | Plant response rating, Jointed goatgra (jointed goatgrass; Rate 62 g/ha, 0 to 100 scale) | Plant response rating, Jointed goatgra (jointed goatgrass; Rate 125 g/ha, 0 to 100 scale) | Plant response rating, Jointed goatgra (jointed goatgrass; [7]) | Plant response rating, Galium (galium; Rate 125 g/ha, 0 to 100 scale) | Plant response rating, Spring Barley (spring barley [3]; [8]) | Plant response rating, Spring Barley (spring barley [3]; [9]) | Plant response rating, Barley (winter) (winter barley; Rate 62 g/ha, 0 to 100 scale) | Plant response rating, Barley (winter) (winter barley; Rate 125 g/ha, 0 to 100 scale) | Plant response rating, Deadnettle (deadnettle; [8]) | Plant response rating, Deadnettle (deadnettle; [9]) | Plant response rating, Spring Wheat (spring wheat [5]; [8]) | Plant response rating, Spring Barley (spring barley [6]; Rate 62 g/ha, 0 to 100 scale)
25: Plant response rating, Spring Barley (spring barley [6]; [7])
15: Plant response rating, Field violet (field violet; [8]) | Plant response rating, Barley (winter) (winter barley; [7])
40: Plant response rating, Kochia (kochia; Rate 250 g/ha, 0 to 100 scale) | Plant response rating, Deadnettle (deadnettle; Rate 250 g/ha, 0 to 100 scale)
20: Plant response rating, LS canarygrass (littleseed canarygrass [1]; Rate 125 g/ha, 0 to 100 scale) | Plant response rating, Spring Wheat (spring wheat [2]; [7]) | Plant response rating, Field violet (field violet; Rate 250 g/ha, 0 to 100 scale) | Plant response rating, Spring Wheat (spring wheat [5]; [9]) | Plant response rating, Spring Barley (spring barley [6]; Rate 125 g/ha, 0 to 100 scale)
30: Plant response rating, Spring Wheat (spring wheat [5]; Rate 250 g/ha, 0 to 100 scale)
70: Plant response rating, LS canarygrass (littleseed canarygrass [1]; [7]) | Plant response rating, LS canarygrass (littleseed canarygrass [4]; Rate 250 g/ha, 0 to 100 scale)
0: Plant response rating, LS canarygrass (littleseed canarygrass [1]; Rate 62 g/ha, 0 to 100 scale) | Plant response rating, Comnion poppy (common poppy; 0 to 100 scale) | Plant response rating, Common poppy (common poppy; [7]) | Plant response rating, Field violet (field violet; [9]) | Plant response rating, Galium (galium; Rate 62 g/ha, 0 to 100 scale)
